10 compounds from patent US6342504B1, “Aromatic heterocyclic derivatives as enzyme inhibitors” (priority 1994, dated 2002) can be followed below.

Experiment [1] concerns clot formation on silk thread in A-V shunt. In words: Multiple extracorporeal (A-V) shunt model in rats utilizing oral dosing. The class given is in vivo. The settings on record: rat, read-out: ED50 value (dose that reduced the clot size by 50%). As to the method: The compounds of Example 10 and 143 were evaluated in a multichamber A-V shunt model in rats. The A-V shunt model is one of the most common and generally used systems to evaluate antithrombotic compounds: Smith, J. R. and White, A. M. Br. J. Pharmacol., 77: 29-38 (1982). In this model a localized clot made up of primarily fibrin with some platelet and macrophage involvement (Shand, R. A. and Smith, J. R. and Wallis, R. B. Thromb. Res., 36: 223-232 (1984)), is formed on an artificial thrombogenic surface (typically a segment of silk or cotton thread) contained in a sialstic chamber which is part of an exteriorized shunt between the carotid artery and jugular vein. The procedure described in this Example is a modified A-V shunt model that allows for oral dosing of test agents and subsequent evaluation of efficacy over a two to three hour window in time.
Briefly, male Harlan Sprague Dawley rats (420-450 g) were acclimated at least 72 hours prior to use. The animals were fasted for 12 hours prior to surgery with free access to water. Unanesthetized animals were grouped into three or four dosage groups (six or seven animals per group) and administered test agents orally via gavage needle, at doses of 1.0, 3.0, 10 and 50 mg/kg for the compound of Example 10, and 3.0, 10 and 30 mg/kg for the Compound of Example 143. Immediately after oral dosing, animals were anesthetized with sodium pentobarbital (Nembutal) given intraperitoneally at a dose of 50 mg/kg body weight, and placed on a isothermal pad to maintain body temperature. The level of anesthesia was monitored every 15 minutes by neuro-response to a tail pinch, respiration and core temperature. The desired depth of surgical anesthesia was maintained by administering subsequent doses (5 mg/kg) intravenously. The left femoral artery was catheterized using standard procedures for blood pressure monitoring and blood sampling, with polyethylene tubing (PE50). The left femoral vein was catheterized with PE50 tubing for delivery of anethestic.
The exteriorized shunts were assembled by connecting two pieces of saline filled 12.5 cm PE90 tubing with a 6 cm piece of PE160 tubing containing a 6 cm piece of silk suture size 3 and clamped with hemostats. A small 0.5 cm portion of the silk thread protrudes from the junction of the chamber with the shunt. The left jugular vein and right carotid artery were catheterized with the ends of the PE90 shunt. The shunt was unclamped and blood allowed to flow from the carotid artery, through the chamber, and exit the shunt via the jugular vein. After 15 minutes, both sides of the chamber were clamped and the suture containing the clot removed following detachment of the arterial end of the chamber. The clot was immediately weighed and recorded. This procedure takes place at predetermined intervals (60, 90, 120, and 150 minutes after oral dosing) to allow assessment of efficacy over a large window in time. Four shunts were placed with flow initiated at 45, 75, 105, and 135 minutes after oral compound administration. Clot weight from the four shunts was the primary endpoint of the protocol. Blood pressure, heart rate core temperature and respiration were monitored continuously. Following termination of the experiment the animals were euthanized with a 120 mg/kg dose of Nembutal. One experiment was performed per animal.
ED50 values were calculated at 60, 90, 120, and 150 minutes after oral dosing of test compound. ED50 is that dose that reduced the clot size by 50%. […]

In a further experiment the target is human plasmin (Homo sapiens, UniProt P00747). In words: biochemical. As to the method: (§1) The ability of compounds of the present invention to act as a selective inhibitor of thrombin catalytic activity was assessed by determining the concentration of compound which inhibited the activity of this enzyme by 50%, (IC50), and comparing this value to that determined for all or some of the following related serine proteases: recombinant tissue plasminogen activator (rt-PA), plasmin, activated protein C, chymotrypsin, factor Xa and trypsin.
human plasmin, sequence (P00747 97-580): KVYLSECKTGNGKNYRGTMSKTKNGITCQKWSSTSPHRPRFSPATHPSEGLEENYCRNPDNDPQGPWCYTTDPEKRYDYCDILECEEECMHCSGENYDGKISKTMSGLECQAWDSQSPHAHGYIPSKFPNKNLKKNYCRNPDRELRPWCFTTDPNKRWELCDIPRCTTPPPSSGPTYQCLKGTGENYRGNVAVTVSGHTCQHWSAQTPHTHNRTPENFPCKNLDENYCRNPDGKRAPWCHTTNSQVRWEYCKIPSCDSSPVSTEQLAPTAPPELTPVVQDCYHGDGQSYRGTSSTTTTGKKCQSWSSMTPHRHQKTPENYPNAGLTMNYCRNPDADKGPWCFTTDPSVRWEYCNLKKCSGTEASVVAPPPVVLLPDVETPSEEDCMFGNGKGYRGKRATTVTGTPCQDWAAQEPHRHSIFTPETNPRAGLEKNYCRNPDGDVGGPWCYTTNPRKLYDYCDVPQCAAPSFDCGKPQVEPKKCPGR
human plasmin, sequence (P00747 581-810): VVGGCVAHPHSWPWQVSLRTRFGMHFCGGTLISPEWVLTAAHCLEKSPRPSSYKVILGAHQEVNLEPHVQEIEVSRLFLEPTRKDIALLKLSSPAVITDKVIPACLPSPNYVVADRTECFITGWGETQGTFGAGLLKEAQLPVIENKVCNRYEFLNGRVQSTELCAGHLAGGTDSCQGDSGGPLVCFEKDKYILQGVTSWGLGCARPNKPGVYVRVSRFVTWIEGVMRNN
(§2) The buffer used for all assays was HBSA (10 mM HEPES, pH 7.5, 150 mM sodium chloride, 0.1% bovine serum albumin).
(§3) The assay for IC50 determinations was conducted by combining in appropriate wells of a Corning microtiter plate, 50 microliters of HBSA, 50 microliters of the test compound at a specified concentration (covering a broad concentration range) diluted in HBSA (or HBSA alone for VO (uninhibited velocity) measurement), and 50 microliters of the enzyme diluted in HBSA. Following a 30 minute incubation at ambient temperature, 50 microliters of the substrate at the concentrations specified below were added to the wells, yielding a final total volume of 200 microliters. The initial velocity of chromogenic substrate hydrolysis was measured by the change in absorbance at 405 nm using a Thermo Max® Kinetic Microplate Reader over a 5 minute period in which less than 5% of the added substrate was utilized. The concentration of added inhibitor which caused a 50% decrease in the initial rate of hydrolysis was defined as the IC50 value.
Plasmin catalytic activity was determined using the chromogenic substrate, S-2366 [L-pyroglutomyl-L-prolyl-L-arginine-p-nitroaniline hydrochloride], which was obtained from Pharmacia-Upjohn. The substrate was made up in deionized water followed by dilution in HBSA prior to the assay in which the final concentration was 300 micromolar (about 2.5-times Km). Purified human plasmin was obtained from Enzyme Research Laboratories, Inc. The enzyme was diluted into HBSA prior to assay in which the final concentration was […].

The next experiment has as its target T1, human aPC (Homo sapiens, UniProt P04070).
T1 construct: purchased Hematologic Technologies, Inc
The experiment in a line: biochemical. The settings on record: 30 minute incubation. As to the method:
as §2
Following a 30 minute incubation at ambient temperature, 50 microliters of the substrate at the concentrations specified below were added to the wells, yielding a final total volume of 200 microliters.
Activated Protein C (aPC) Assay
aPC catalytic activity was determined using the chromogenic substrate, Pefachrome PC (delta-carbobenzloxy-D-lysine-L-prolyl-L-arginine-p-nitroaniline dihydrochloride), obtained from Pentapharm Ltd.). […] Purified human aPC was obtained from Hematologic Technologies, Inc. The enzyme was diluted into HBSA prior to assay in which the final concentration was 1.0 nM.

The target in another experiment is T2, Human rt-PA (Activase) (Homo sapiens, UniProt P00750).
T2 construct: purchased Genentech Inc
T2 sequence (P00750 36-562): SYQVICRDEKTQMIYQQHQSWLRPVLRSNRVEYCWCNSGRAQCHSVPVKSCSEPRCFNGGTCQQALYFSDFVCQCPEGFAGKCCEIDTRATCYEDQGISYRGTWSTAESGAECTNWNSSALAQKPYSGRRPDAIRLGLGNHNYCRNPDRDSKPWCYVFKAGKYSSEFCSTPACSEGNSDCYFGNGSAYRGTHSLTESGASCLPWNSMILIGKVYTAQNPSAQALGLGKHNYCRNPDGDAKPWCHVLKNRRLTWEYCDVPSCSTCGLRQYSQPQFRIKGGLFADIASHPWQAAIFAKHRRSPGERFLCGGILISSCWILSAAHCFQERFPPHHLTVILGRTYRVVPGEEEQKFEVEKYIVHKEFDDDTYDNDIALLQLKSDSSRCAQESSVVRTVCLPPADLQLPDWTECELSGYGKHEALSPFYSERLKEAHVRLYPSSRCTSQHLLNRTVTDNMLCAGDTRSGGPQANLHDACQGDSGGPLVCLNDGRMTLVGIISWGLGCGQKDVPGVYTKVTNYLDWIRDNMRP
The experiment in a line: biochemical. The settings on record: 30 minute incubation. As to the method:
as §1, §2, §3
Recombinant Tissue Plasminogen Activator (rt-PA) Assay
rt-PA catalytic activity was determined using the substrate, Pefachrome t-PA (CH3SO2-D-hexahydrotyrosine-glycyl-L-arginine-p-nitroaniline, obtained from Pentapharm Ltd.). The substrate was made up in deionized water followed by dilution in HBSA prior to the assay in which the final concentration was 500 micromolar (about 3-times Km). Human rt-PA (Activase®) was obtained from Genentech Inc. The enzyme was reconstituted in deionized water and diluted into HBSA prior to the assay in which the final concentration was 1.0 nM.

The target of the next experiment is T3, human alpha thrombin (Homo sapiens, UniProt P00734).
T3 construct: Purified human alpha-thrombin; purchased Enzyme Research Laboratories, Inc
The experiment in a line: Thrombin (fIIa) IC50 assay, chromogenic substrate Pefachrome t-PA. The class given is biochemical. As to the method:
as §1, §2, §3
Enzyme activity was determined using the chromogenic substrate, Pefachrome t-PA (CH3SO2-D-hexahydrotyrosine-glycyl-L-Arginine-p-nitroaniline, obtained from Pentapharm Ltd.). The substrate was reconstituted in deionized water prior to use. Purified human a-thrombin was obtained from Enzyme Research Laboratories, Inc. The buffer used for all assays was HBSA (10 mM HEPES, pH 7.5, 150 mM sodium chloride, 0.1% bovine serum albumin).
IC50 determinations were conducted where HBSA ([…]), a-thrombin (50 μl) and inhibitor (50 μl) (covering a broad concentration range), were combined in appropriate wells and incubated for 30 minutes at room temperature prior to the addition of substrate Pefachrome-t-PA (50 μl). The initial velocity of Pefachrome t-PA hydrolysis was measured by the change in absorbance at 405 nm using a Thermo Max® Kinetic Microplate Reader over a 5 minute period in which less than 5% of the added substrate was utilized. The concentration of added inhibitor which caused a 50% decrease in the initial rate of hydrolysis was defined as the IC50 value.

Where [2] appears, read: 30 minute incubation, read-out: Plasmin (IC50) (Table 3A).
Setting [3] is: read-out: aPC (IC50) (Table 3A).
Where [4] appears, read: read-out: rt-PA (IC50) (Table 3A).
[5] abbreviates: 30 minute incubation, read-out: Plasmin IC50 (Table 3B).

Where a name gives a salt, the structure may show the parent alone. Read-outs that look alike come from different tables or passages of the source.

T1 sequence (P04070 43-197): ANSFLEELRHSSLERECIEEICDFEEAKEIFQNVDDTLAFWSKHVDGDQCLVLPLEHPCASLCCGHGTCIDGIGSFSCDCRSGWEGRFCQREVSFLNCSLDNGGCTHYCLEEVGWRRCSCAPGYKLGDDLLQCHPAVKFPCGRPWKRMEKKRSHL
T1 sequence (P04070 212-461): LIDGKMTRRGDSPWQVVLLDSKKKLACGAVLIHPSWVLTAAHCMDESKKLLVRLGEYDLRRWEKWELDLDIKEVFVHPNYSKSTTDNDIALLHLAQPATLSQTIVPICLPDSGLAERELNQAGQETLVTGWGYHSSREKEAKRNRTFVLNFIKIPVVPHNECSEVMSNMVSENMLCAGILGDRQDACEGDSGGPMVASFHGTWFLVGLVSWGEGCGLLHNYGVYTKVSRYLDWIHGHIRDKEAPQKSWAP

A word on the ED50: it is the dose at which the effect has come halfway, by size or by number of responders. As to `N=C(N)NCCCC(C=O)NC(=O)Cn1cccc(NS(=O)(=O)Cc2ccccc2F)c1=O` (stereo not shown) [Compound 121J], the ED50 in experiment [1] (1 h, 60 min after oral dose) turned out to be 22 mg/kg; in experiment [1] (1.5 h, 90 min after oral dose), 20 mg/kg; in experiment [1] (2 h, 120 min after oral dose), 24 mg/kg; in experiment [1] (150 min after oral dose), 28 mg/kg.

Broadly, the IC50 is the concentration at which inhibition is half-maximal. Turning to `N=C(N)NCCC[C@@H](C=O)NC(=O)Cn1cccc(NS(=O)(=O)c2ccccc2C(F)(F)F)c1=O` [Compound 2-CF3-phenyl], the 50% inhibitory concentration (IC50) was more than 2.5 µM at human plasmin (setting [2]), more than 2.5 µM at human aPC (setting [3]), more than 2.5 µM on Human rt-PA (Activase) (setting [4]) and 0.0056 µM against human alpha thrombin.

As to `Cc1cccc(S(=O)(=O)Nc2cccn(CC(=O)N[C@H](C=O)CCCNC(=N)N)c2=O)c1` [Compound 3-Me-phenyl, [3-(3-methyiphenyl)sulfonylamino-2-oxo-1,2-dihydro-pyridyl]acetyl-L-argininal], the IC50 was more than 2.5 µM on human plasmin (setting [2]), more than 2.5 µM on human aPC (setting [3]), more than 2.5 µM on Human rt-PA (Activase) (setting [4]) and 0.00085 µM on human alpha thrombin.

For `COc1ccc(OC)c(S(=O)(=O)Nc2ccc(C)n(CC(=O)N[C@H](C=O)CCCNC(=N)N)c2=O)c1` [Compound 126C, 3-[(2,5-dimethoxyphenyl)sulfonylamino-6-methyl-2-oxo-1,2-dihydro-pyridyl]acetyl-L-argininal], the figures for the IC50 on human plasmin (setting [5]) and against human alpha thrombin were more than 2.5 µM and 0.000519 µM, respectively. At human aPC, the “aPC IC50 (Table 3B)” value is “inactive”. The “rtPA IC50 (Table 3B)” value on Human rt-PA (Activase) is “inactive”.

On to `CS(=O)(=O)Nc1c(CCc2ccccc2)ccn(CC(=O)N[C@H](C=O)CCCNC(=N)N)c1=O` [Compound 134B, [3-methylsulfonylamino-4-(2-phenylethyl)-2-oxo-1,2-dihydropyridyl]acetyl-L-argininal], for which the IC50 on human plasmin (read-out: Plasmin IC50 (Table 3B)) is more than 2.5 µM; at Human rt-PA (Activase) (read-out: rtPA IC50 (Table 3B)) it was more than 2.5 µM; on human alpha thrombin it was 0.00795 µM. Moreover, the “aPC IC50 (Table 3B)” value on human aPC was “inactive”.

As to `COc1ccc(OC)c(S(=O)(=O)Nc2cccn(CC(=O)N[C@H](C=O)CCCNC(=N)N)c2=O)c1` [Compound 121E, [3-(2,5-dimethoxyphenyl)sulfonylamino-2-oxo-1,2-dihydropyridyl]acetyl-L-argininal], the IC50 is more than 2.5 µM on human plasmin (setting [5]) and 0.000597 µM against human alpha thrombin. The “aPC IC50 (Table 3B)” value at human aPC was “inactive”. In addition, the “rtPA IC50 (Table 3B)” value at Human rt-PA (Activase) is “inactive”.

Regarding `CCc1ccc(NS(=O)(=O)c2cc(F)ccc2C)c(=O)n1CC(=O)N[C@H](C=O)CCCNC(=N)N` [Compound 126F, [3-(5-fluoro-2-methylphenyl)sulfonylamino-6-ethyl-2-oxo-1,2-dihydro-pyridyl]acetyl-L-argininaln], the IC50 on human plasmin (setting [5]) is approximately 2.5 µM; against human alpha thrombin, 0.00071 µM. Also, the “aPC IC50 (Table 3B)” value at human aPC is “inactive”. Also, the “rtPA IC50 (Table 3B)” value on Human rt-PA (Activase) was “inactive”.

Turning to `Cc1ncc(NS(=O)(=O)Cc2ccccc2)c(=O)n1CC(=O)N[C@H](C=O)CCCNC(=N)N` [Compound D, (5-benzylsulfonylamino-2-methyl-6-oxo-1,6-dihydro-1-pyrimidinyl)acetyl-L-argininal, trifluoroacetate salt], the IC50 was more than 2.5 µM at human plasmin (30 minute incubation, read-out: IC50 Plasmin (Table 2)); more than 2.5 µM at human aPC (1.0 nM enzyme, read-out: IC50 aPC (Table 2)); more than 2.5 µM on Human rt-PA (Activase) (1.0 nM enzyme, read-out: IC50 rt-PA (Table 2)); 0.00232 µM at human alpha thrombin.

Turning to `Cc1ccccc1S(=O)(=O)Nc1cccn(CC(=O)N[C@H](C=O)CCCNC(=N)N)c1=O` [Compound 2-Me-phenyl, [3-(2-methylphenyl)sulfonylamino-2-oxo-1,2-dihydropyridyl]acetyl-L-argininal], the IC50 on human plasmin (setting [2]) is more than 2.5 µM; on human aPC (setting [3]) it was more than 2.5 µM; on Human rt-PA (Activase) (setting [4]), more than 2.5 µM; at human alpha thrombin it was 0.0014 µM.

Consider `COc1cccc(S(=O)(=O)Nc2ccc(C)n(CC(=O)N[C@H](C=O)CCCNC(=N)N)c2=O)c1` [Compound 153A, [3-(3-methoxylphenyl)sulfonylamino-6-methyl-2-oxo-1,2-dihydro-pyridyl]acetyl-L-argininal], for which the concentration for half-maximal inhibition (IC50) on human plasmin (30 minute incubation, read-out: Plasmin IC50 (Table 3C)) was more than 2.5 µM; on human aPC (read-out: aPC IC50 (Table 3C)) it was more than 2.5 µM; on Human rt-PA (Activase) (read-out: rtPA IC50 (Table 3C)), more than 2.5 µM; on human alpha thrombin (30 minute incubation, read-out: Thrombin IC50 (Table 3C)) it was 0.000456 µM.
